Calls of active or inactive are those of the source.
Assays:
[1] = biological target: Voltage-dependent T-type calcium channel subunit alpha-1H (Homo sapiens, UniProt O95180); assay type: functional;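 note: channel activity triggered by adding a high calcium stimulation buffer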
[2] = biological target: Glyceraldehyde-3-phosphate dehydrogenase (Homo sapiens, UniProt P04406)
[3] = biological target: T1, Alkaline phosphatase, tissue-nonspecific isozyme (Homo sapiens, UniProt P05186); experiment: potency against alkaline phosphatase TNAP – biochemical, luminescent, dose response, SAR follow-up (AID 1056)
T1 sequence (P05186 whole entry): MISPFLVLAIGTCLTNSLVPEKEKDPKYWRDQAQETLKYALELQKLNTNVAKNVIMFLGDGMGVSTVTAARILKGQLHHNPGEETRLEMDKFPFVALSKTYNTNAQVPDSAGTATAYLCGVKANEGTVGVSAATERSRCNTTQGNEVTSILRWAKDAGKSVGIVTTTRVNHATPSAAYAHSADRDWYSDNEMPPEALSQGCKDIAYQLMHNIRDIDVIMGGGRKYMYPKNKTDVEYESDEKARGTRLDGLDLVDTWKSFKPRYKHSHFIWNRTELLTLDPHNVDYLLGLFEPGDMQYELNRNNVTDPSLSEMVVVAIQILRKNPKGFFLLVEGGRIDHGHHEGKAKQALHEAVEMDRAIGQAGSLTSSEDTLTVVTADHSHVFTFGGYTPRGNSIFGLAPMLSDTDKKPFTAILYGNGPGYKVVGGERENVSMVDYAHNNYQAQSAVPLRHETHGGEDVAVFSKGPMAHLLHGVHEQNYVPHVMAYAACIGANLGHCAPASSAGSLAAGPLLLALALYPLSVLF

[4] = biological target: Eukaryotic translation initiation factor 4E (Mus musculus, UniProt P63073); experiment: blockers of eIF4G binding by eIF4E – biochemical, TR-FRET, dose response (AID 855); assay type: functional;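 note: potency for disrupting eIF4E binding to eIF4GI seen as loss of FRET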
[5] = biological target: T2, Calpain-2 catalytic subunit (Sus scrofa, UniProt P43367); experiment: m-calpain protease blockers, concentration series – biochemical, fluorogenic peptide substrate, dose response (AID 1420); assay type: functional
T2 sequence (P43367 whole entry): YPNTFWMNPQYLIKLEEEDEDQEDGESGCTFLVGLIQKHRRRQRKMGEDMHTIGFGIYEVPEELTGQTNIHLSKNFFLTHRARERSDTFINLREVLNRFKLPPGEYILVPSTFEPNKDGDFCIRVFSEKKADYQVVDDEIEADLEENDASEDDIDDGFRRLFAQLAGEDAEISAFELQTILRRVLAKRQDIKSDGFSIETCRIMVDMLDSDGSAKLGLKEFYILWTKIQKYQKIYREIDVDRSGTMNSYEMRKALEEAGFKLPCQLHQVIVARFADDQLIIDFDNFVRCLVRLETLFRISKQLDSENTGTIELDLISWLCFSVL

[6] = biological target: T3, Tyrosine-protein phosphatase non-receptor type 22 (Homo sapiens, UniProt Q9Y2R2); assay type: functional
T3 sequence (Q9Y2R2 whole entry): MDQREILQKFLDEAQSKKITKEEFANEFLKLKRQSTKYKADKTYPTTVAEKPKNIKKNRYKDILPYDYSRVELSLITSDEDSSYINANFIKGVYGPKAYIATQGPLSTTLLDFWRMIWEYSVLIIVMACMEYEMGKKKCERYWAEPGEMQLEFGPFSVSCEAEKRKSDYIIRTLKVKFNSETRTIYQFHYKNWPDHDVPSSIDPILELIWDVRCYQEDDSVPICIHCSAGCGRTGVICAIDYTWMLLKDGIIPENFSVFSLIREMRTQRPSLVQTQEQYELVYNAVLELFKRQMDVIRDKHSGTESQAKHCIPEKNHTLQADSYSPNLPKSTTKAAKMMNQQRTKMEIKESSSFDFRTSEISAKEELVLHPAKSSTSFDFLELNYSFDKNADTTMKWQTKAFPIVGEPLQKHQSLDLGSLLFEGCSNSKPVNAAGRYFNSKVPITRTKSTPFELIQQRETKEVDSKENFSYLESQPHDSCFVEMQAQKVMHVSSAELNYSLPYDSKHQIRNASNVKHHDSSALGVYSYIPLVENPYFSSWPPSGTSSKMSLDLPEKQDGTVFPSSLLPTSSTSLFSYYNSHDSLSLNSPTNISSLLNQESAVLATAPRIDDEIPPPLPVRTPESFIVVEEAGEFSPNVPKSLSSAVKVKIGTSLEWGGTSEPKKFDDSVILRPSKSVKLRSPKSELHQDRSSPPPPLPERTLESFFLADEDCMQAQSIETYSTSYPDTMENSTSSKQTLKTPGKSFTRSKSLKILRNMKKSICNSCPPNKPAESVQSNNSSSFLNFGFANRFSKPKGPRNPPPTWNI

[7] = biological target: T3, Tyrosine-protein phosphatase non-receptor type 22; assay type: functional; remark: listed apart in the source
[8] = biological target: T4, Tyrosine-protein phosphatase non-receptor type 7 (Homo sapiens, UniProt P35236); assay type: functional
T4 sequence (P35236 whole entry): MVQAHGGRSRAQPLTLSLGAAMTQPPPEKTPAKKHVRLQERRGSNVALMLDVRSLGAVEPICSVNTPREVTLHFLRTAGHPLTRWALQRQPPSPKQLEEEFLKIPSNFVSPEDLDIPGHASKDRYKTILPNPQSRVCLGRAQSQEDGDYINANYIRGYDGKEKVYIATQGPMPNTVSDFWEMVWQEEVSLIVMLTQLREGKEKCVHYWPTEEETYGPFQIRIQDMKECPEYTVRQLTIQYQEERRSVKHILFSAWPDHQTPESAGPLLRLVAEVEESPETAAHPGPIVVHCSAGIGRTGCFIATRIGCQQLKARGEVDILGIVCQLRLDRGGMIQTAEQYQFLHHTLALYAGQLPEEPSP

[9] = cells; assay type: functional
[10] = biological target: T5, Protein RecA (Mycobacterium tuberculosis, UniProt P9WHJ3); experiment: Fluorescence Cell-Free Homogeneous Dose Retest to Identify Inhibitors of RecA-Intein Splicing Activity. [Related pubchem assays (depositor defined):AID2097, AID2223, AID489010, AID492950]; assay type: functional
T5 sequence (P9WHJ3 whole entry): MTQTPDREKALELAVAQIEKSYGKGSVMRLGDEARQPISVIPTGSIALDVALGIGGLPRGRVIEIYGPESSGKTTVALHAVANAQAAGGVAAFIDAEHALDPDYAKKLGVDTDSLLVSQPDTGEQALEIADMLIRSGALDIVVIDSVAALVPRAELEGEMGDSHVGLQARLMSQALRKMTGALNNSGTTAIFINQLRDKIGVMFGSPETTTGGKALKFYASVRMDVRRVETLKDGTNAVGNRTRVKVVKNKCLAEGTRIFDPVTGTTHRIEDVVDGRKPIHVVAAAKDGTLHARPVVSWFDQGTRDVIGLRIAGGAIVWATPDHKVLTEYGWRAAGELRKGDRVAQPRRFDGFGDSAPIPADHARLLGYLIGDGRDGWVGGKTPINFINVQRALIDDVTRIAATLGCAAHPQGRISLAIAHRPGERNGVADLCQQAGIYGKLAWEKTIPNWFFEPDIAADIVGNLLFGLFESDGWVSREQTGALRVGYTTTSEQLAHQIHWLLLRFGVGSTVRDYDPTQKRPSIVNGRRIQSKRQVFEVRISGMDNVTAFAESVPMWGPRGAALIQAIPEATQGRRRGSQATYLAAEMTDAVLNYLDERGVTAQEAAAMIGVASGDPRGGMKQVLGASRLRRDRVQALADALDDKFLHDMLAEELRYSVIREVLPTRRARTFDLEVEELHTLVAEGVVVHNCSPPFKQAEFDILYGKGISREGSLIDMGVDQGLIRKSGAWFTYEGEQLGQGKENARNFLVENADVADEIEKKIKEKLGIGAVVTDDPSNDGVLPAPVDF

[11] = THP-1 cell cytotoxicity, dose response, cytotoxicity control for non-replicating M. tuberculosis project (AID 489025); assay type: functional
[12] = biological target: T6, Replicative DNA helicase DnaB (Mycobacterium tuberculosis, UniProt P9WMR3); experiment: DnaB intein splicing inhibitors, dose response, biochemical, cell-free fluorescence (AID 449749); assay type: functional
T6 sequence (P9WMR3 whole entry): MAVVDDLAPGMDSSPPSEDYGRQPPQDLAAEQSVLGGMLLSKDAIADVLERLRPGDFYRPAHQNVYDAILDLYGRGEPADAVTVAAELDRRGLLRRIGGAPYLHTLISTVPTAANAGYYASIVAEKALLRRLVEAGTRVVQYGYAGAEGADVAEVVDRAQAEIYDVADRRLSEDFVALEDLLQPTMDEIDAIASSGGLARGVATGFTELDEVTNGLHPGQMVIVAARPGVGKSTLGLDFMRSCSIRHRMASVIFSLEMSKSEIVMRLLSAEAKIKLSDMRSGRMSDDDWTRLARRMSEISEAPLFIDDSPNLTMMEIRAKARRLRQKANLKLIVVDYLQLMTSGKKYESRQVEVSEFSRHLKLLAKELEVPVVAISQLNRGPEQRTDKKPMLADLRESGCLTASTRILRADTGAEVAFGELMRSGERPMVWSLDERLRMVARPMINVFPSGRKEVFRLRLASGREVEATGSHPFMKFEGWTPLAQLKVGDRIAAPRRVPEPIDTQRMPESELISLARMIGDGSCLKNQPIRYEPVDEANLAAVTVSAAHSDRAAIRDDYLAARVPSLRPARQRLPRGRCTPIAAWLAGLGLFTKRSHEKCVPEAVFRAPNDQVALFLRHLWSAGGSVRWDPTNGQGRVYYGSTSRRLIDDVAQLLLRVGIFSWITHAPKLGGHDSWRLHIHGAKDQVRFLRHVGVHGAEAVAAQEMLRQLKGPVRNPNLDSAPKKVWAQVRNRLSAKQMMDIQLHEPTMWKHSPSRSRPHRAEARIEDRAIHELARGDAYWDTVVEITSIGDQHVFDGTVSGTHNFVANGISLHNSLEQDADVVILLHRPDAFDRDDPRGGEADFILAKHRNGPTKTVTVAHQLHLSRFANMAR

[13] = Vero E6 cell cytotoxicity, dose response, cytotoxicity control for non-replicating M. tuberculosis project, secondary assay (AID 492998); assay type: functional, VeroE6; conditions: Vero C1008
[14] = HepG2 cell cytotoxicity, dose response, cytotoxicity control for non-replicating M. tuberculosis project (AID 489018); assay type: functional; conditions: Mycobacterium tuberculosis
[15] = system: HEK293; experiment: inhibition of NOD1-driven NF-kB reporter – cell-based, luminescence, uHTS, primary screen (AID 1578); assay type: functional; conditions: Homo sapiens
[16] = alpha-synuclein stem-loop luciferase translation blockers – H4 neuroglioma cells, luminescence, confirmation (AID 1988); assay type: functional, cell-based
[17] = system: HEK293; experiment: NOD2 signaling inhibitors in MDP-stimulated cells, cell-based, uHTS, luminescence (AID 2001); assay type: functional; conditions: Homo sapiens
[18] = system: HEK293; experiment: cells; assay type: functional, cell-based; conditions: Homo sapiens
[19] = Luminescence Cell-Based Dose Response HTS to Identify Inhibitors of 5'UTR Stem-Loop Driven Prion Protein mRNA Translation in H4 Neuroglioblastoma Cells. [Related pubchem assays: 1827 (Project Summary), 1813 (Primary HTS)]; assay type: functional
[20] = system: INS1; experiment: INS-1E survival protection against cytokine death – cell-based, luminescence, retest, dose response (AID 449756); assay type: functional; conditions: Rattus norvegicus;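 note: cell death triggered by IL-1 beta plus TNF-alpha plus IFN-gamma mixture; protective hits raise ATP signal compared with cytokine alone wells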
[21] = system: HEK293; experiment: cells; assay type: functional, cell-based; conditions: Homo sapiens; remark: listed apart in the source
[22] = luciferase reporter signal suppression in cells – H4 neuroglioma cells, luminescence, dose response (AID 1990); assay type: functional, cell-based
[23] = viability of uninfected HEp-2 cells – cell-based, HTS, cytotoxicity control for RSV inhibitor project, dose response (AID 2410); assay type: functional; conditions: human respiratory syncytial virus
[24] = system: Vero; experiment: cells; assay type: functional, cell-based; conditions: Chlorocebus sabaeus
[25] = system: Vero; experiment: cells; assay type: functional; conditions: Chlorocebus sabaeus

Chain of Eukaryotic translation initiation factor 4E (P63073 whole entry): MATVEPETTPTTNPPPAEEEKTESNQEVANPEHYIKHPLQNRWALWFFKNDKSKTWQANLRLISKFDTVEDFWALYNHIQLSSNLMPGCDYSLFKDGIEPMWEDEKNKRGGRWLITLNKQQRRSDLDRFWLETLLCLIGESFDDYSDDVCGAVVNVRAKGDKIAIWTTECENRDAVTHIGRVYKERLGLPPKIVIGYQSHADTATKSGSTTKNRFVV
Chain of Voltage-dependent T-type calcium channel subunit alpha-1H (O95180 whole entry): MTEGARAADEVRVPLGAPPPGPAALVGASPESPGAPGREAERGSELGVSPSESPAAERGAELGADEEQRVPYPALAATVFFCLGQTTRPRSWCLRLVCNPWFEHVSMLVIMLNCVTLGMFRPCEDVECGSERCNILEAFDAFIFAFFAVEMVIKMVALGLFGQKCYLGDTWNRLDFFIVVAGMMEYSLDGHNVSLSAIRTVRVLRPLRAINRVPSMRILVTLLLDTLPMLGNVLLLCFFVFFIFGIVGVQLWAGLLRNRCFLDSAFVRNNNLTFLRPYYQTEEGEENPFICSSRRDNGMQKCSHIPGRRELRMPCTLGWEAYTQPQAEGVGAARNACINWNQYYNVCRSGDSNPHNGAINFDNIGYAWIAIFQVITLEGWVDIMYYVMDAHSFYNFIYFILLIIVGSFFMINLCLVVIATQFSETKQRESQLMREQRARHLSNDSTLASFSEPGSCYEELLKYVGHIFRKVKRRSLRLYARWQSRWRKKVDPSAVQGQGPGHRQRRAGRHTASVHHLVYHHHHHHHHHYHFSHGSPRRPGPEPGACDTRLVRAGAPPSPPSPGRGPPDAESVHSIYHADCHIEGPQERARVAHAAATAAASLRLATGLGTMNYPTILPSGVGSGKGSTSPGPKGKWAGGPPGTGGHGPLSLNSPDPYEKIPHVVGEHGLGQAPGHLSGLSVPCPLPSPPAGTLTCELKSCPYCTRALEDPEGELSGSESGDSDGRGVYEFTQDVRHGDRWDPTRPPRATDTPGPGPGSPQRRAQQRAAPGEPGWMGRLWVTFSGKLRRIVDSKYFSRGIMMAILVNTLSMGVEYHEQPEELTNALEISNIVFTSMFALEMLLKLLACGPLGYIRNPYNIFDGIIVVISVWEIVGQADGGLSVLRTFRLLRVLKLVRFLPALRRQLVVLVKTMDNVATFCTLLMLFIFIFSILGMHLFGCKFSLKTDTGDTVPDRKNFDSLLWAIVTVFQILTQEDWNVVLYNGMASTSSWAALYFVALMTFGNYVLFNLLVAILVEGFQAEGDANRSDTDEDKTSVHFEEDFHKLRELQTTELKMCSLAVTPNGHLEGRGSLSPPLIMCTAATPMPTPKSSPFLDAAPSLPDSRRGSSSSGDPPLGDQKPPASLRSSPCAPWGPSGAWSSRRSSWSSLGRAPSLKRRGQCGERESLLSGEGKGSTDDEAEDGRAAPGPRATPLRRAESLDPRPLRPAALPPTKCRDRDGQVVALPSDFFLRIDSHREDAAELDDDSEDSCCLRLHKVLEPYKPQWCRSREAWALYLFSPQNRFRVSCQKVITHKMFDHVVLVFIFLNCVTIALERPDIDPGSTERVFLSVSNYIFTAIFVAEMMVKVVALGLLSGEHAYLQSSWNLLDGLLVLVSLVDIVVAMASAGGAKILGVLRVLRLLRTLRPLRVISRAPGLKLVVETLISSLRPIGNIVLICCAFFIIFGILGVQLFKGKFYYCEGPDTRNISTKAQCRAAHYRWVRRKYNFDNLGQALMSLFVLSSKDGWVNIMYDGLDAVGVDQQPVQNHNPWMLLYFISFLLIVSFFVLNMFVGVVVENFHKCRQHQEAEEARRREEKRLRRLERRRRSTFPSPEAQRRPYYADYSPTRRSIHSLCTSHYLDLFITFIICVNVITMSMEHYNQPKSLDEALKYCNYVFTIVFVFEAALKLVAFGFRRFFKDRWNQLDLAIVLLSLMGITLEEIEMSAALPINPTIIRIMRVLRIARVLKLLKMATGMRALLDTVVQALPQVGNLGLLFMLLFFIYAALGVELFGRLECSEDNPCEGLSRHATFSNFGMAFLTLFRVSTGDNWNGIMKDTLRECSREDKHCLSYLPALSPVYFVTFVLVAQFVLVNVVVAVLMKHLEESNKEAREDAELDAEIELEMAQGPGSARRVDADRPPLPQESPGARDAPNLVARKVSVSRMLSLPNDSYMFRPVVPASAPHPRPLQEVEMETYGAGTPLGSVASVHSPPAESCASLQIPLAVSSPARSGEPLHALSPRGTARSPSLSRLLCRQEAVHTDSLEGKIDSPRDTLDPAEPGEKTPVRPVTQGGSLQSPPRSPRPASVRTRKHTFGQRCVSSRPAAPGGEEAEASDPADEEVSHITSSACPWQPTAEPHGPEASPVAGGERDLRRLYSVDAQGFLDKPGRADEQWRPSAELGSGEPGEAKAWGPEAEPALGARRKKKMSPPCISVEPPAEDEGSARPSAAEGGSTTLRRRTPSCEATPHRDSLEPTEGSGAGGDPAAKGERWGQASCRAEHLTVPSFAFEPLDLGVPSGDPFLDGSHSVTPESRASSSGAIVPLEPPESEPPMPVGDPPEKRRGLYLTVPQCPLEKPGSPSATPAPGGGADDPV
Chain of Glyceraldehyde-3-phosphate dehydrogenase (P04406 whole entry): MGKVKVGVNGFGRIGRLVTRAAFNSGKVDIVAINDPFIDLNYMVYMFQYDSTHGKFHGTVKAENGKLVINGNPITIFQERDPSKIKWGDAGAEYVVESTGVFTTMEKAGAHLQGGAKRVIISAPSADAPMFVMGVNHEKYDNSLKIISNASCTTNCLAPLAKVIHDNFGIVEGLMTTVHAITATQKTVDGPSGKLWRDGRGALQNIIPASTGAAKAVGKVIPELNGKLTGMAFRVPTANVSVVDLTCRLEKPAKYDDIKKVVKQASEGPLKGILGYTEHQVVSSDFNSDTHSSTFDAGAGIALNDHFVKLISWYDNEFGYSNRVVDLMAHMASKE

O=C(Nc1nc(-c2cccs2)cs1)c1cccc(S(=O)(=O)N2CCCCC2)c1
EC50 [1]: 4.13 µM (active)

CCCCOc1ccc(-c2cc(C(=O)OC)[nH]n2)cc1
IC50 [2]: > 100 µM (not active)
IC50 [3]: 0.912 µM (active)

Fc1c(F)c(C(F)(F)F)c(F)c(F)c1N1CCN(c2ccc3nnc(C(F)(F)F)n3n2)CC1
IC50 [4]: > 64 µM (inactive)
IC50 [5]: 3.07 µM (not active)

COc1ccccc1N1CCN(C(=O)C2CCN(C(=O)c3ccccc3Cl)CC2)CC1
IC50 [6]: > 79.4 µM (inactive)
IC50 [7]: > 79.4 µM (inactive)
IC50 [8]: > 79.4 µM (inactive)

CCN(CC)S(=O)(=O)c1ccc(C(=O)NCCSc2c[nH]c3ccccc23)cc1
EC50 [1]: 3.87 µM (active)

Cc1ccc(N2C(=O)c3ccccc3C2(O)c2ncc[nH]2)cc1 (centres undefined)
IC50 [4]: > 64 µM (inactive)

Cn1cnc([N+](=O)[O-])c1S(=O)(=O)c1cccc(Cl)c1
IC50 [9]: 5.88 µM (active)
EC50 [10]: 15.8 µM (active)
CC50 [11]: 15.5 µM (active)
AC50 [12]: 27.7 µM (active)
CC50 [13]: 8.33 µM (active)
CC50 [14]: 13 µM (active)

COC(=O)c1cc(-c2cc(F)c(F)cc2F)n[nH]1
IC50 [2]: > 10 µM (inconclusive)
IC50 [3]: 1.07 µM (active)

CC(C)CCNC(=O)c1ccc2c(Cl)c3c(nc2c1)CCC3
IC50 [6]: > 79.4 µM (inactive)
IC50 [7]: > 79.4 µM (inactive)
IC50 [8]: > 79.4 µM (inactive)

O=C(Cc1cccs1)N1CCN(c2ccc([N+](=O)[O-])cc2)CC1
IC50 [6]: > 79.4 µM (inactive)
IC50 [7]: > 79.4 µM (inactive)
IC50 [8]: > 79.4 µM (inactive)

CCn1c(CSc2nc3ccccc3s2)nc2ccccc21
EC50 [1]: 5.73 µM (active)

O=C(N/N=C/c1cc(Br)c(Br)s1)c1ccncc1
EC50 [15]: > 20 µM (inactive)
IC50 [9]: 2.64 µM (active)
EC50 [16]: 9.58 µM (active)
CC50 [11]: 6.79 µM (active)
IC50 [17]: 17.9 µM (inactive)
IC50 [18]: > 20 µM (inactive)
EC50 [19]: 16.8 µM (active)
CC50 [13]: 7.99 µM (active)
AC50 [20]: 3.31 µM (active)
IC50 [21]: 2.13 µM (active)
EC50 [22]: > 120 µM (not active)
CC50 [14]: 16.7 µM (active)

CCOc1ccccc1-c1cc(C(=O)N/N=C/c2ccc(O)c(OC)c2)c2ccccc2n1
CC50 [23]: 26.7 µM (active)
IC50 [6]: > 79.4 µM (inactive)
IC50 [7]: > 79.4 µM (inactive)
IC50 [8]: > 79.4 µM (inactive)
IC50 [24]: > 25 µM (active)
CC50 [25]: > 25 µM (active)

CCCCCCCCCC(=O)N/N=C/c1ccc(C)s1
IC50 [4]: > 64 µM (inactive)

— ChEMBL document CHEMBL1201862, “PubChem BioAssay data set” (2004)
